In the NIST ThermoML archive (doi:10.1016/j.jct.2017.08.004):
Numbers after ± are expanded uncertainties.

Columns and labels:
[1] = for molar entropy: 101.33 kPa
[2] = Molar enthalpy of transition or fusion; settings: Crystal; DSC

OC[C@@H](O)[C@H](O)[C@@H](O)CO [xylitol]
[1]
Settings | molar entropy [J/K/mol]
1 K, Crystal, relaxation calorimetry | 0.0003173 ± 4.7e-05
2 K, Crystal, relaxation calorimetry | 0.002178 ± 0.00021
3 K, Crystal, relaxation calorimetry | 0.007217 ± 0.00068
4 K, Crystal, relaxation calorimetry | 0.01724 ± 0.0016
5 K, Crystal, relaxation calorimetry | 0.03429 ± 0.0032
6 K, Crystal, relaxation calorimetry | 0.06064 ± 0.0056
7 K, Crystal, relaxation calorimetry | 0.09884 ± 0.0091
8 K, Crystal, relaxation calorimetry | 0.1517 ± 0.014
9 K, Crystal, relaxation calorimetry | 0.2221 ± 0.02
10 K, Crystal, relaxation calorimetry | 0.3121 ± 0.029
15 K, Crystal, relaxation calorimetry | 1.099 ± 0.1
20 K, Crystal, relaxation calorimetry | 2.464 ± 0.23
25 K, Crystal, relaxation calorimetry | 4.334 ± 0.4
30 K, Crystal, relaxation calorimetry | 6.612 ± 0.61
35 K, Crystal, relaxation calorimetry | 9.217 ± 0.85
40 K, Crystal, relaxation calorimetry | 12.09 ± 1.1
45 K, Crystal, relaxation calorimetry | 15.19 ± 1.4
50 K, Crystal, relaxation calorimetry | 18.47 ± 1.7
55 K, Crystal, relaxation calorimetry | 21.88 ± 2
60 K, Crystal, relaxation calorimetry | 25.4 ± 2.3
65 K, Crystal, relaxation calorimetry | 29.01 ± 2.7
70 K, Crystal, relaxation calorimetry | 32.7 ± 3
75 K, Crystal, relaxation calorimetry | 36.44 ± 3.3
80 K, Crystal, relaxation calorimetry | 40.21 ± 3.7
85 K, Crystal, relaxation calorimetry | 44.01 ± 4
90 K, Crystal, relaxation calorimetry | 47.82 ± 4.4
95 K, Crystal, relaxation calorimetry | 51.65 ± 4.7
100 K, Crystal, relaxation calorimetry | 55.48 ± 5.1
110 K, Crystal, relaxation calorimetry | 63.13 ± 5.8
120 K, Crystal, relaxation calorimetry | 70.74 ± 6.5
130 K, Crystal, relaxation calorimetry | 78.31 ± 7.2
140 K, Crystal, relaxation calorimetry | 85.82 ± 7.9
150 K, Crystal, relaxation calorimetry | 93.27 ± 8.6
160 K, Crystal, relaxation calorimetry | 100.65 ± 9.2
170 K, Crystal, relaxation calorimetry | 107.96 ± 9.9
180 K, Crystal, relaxation calorimetry | 115.21 ± 11
190 K, Crystal, relaxation calorimetry | 122.4 ± 11
200 K, Crystal, relaxation calorimetry | 129.55 ± 12
210 K, Crystal, relaxation calorimetry | 136.64 ± 13
220 K, Crystal, relaxation calorimetry | 143.7 ± 13
230 K, Crystal, relaxation calorimetry | 150.72 ± 14
240 K, Crystal, relaxation calorimetry | 157.72 ± 14
250 K, Crystal, relaxation calorimetry | 164.69 ± 15
260 K, Crystal, relaxation calorimetry | 171.65 ± 16
270 K, Crystal, relaxation calorimetry | 178.59 ± 16
273.15 K, Crystal, relaxation calorimetry | 180.78 ± 17
280 K, Crystal, relaxation calorimetry | 185.53 ± 17
290 K, Crystal, relaxation calorimetry | 192.47 ± 18
298.15 K, Crystal, relaxation calorimetry | 198.13 ± 18
300 K, Crystal, relaxation calorimetry | 199.41 ± 18
305 K, Crystal, Small sample (50 mg) DSC | 202.93 ± 19
310 K, Crystal, Small sample (50 mg) DSC | 206.47 ± 19
315 K, Crystal, Small sample (50 mg) DSC | 210.02 ± 19
320 K, Crystal, Small sample (50 mg) DSC | 213.58 ± 20
325 K, Crystal, Small sample (50 mg) DSC | 217.15 ± 20
330 K, Crystal, Small sample (50 mg) DSC | 220.72 ± 20
335 K, Crystal, Small sample (50 mg) DSC | 224.31 ± 21
340 K, Crystal, Small sample (50 mg) DSC | 227.9 ± 21
345 K, Crystal, Small sample (50 mg) DSC | 231.52 ± 21
350 K, Crystal, Small sample (50 mg) DSC | 235.17 ± 22
355 K, Crystal, Small sample (50 mg) DSC | 238.92 ± 22
360 K, Crystal, Small sample (50 mg) DSC | 243.05 ± 22
380 K, Liquid, Small sample (50 mg) DSC | 367.99 ± 34
385 K, Liquid, Small sample (50 mg) DSC | 373.77 ± 35
390 K, Liquid, Small sample (50 mg) DSC | 379.42 ± 35
395 K, Liquid, Small sample (50 mg) DSC | 385 ± 36
400 K, Liquid, Small sample (50 mg) DSC | 390.52 ± 36
405 K, Liquid, Small sample (50 mg) DSC | 395.99 ± 37
410 K, Liquid, Small sample (50 mg) DSC | 401.41 ± 37
415 K, Liquid, Small sample (50 mg) DSC | 406.78 ± 38
420 K, Liquid, Small sample (50 mg) DSC | 412.1 ± 38
425 K, Liquid, Small sample (50 mg) DSC | 417.37 ± 39
430 K, Liquid, Small sample (50 mg) DSC | 422.59 ± 39
435 K, Liquid, Small sample (50 mg) DSC | 427.75 ± 40

Settings | Normal melting temperature [°C]
[1], Crystal, DTA | 93.0 ± 0.61

Settings | Molar enthalpy of transition or fusion [kcal/mol]
[2] | 9.44 ± 0.598
